Where two headings read alike, the source gives them in different places. Bounds are passed on as bounds.

Test [1] addresses Alpha (DGK alpha; only in reference sheet cells) (Rattus norvegicus, UniProt P51556). Briefly: DGK isoform % Activity screen. In kind it is biochemical. The conditions noted are these: for activity at 100 µM: read-out: 100 uM % Activity (section without isoform head; Alpha).
In the next test the target is T1, recombinant DGKα (Rattus norvegicus, UniProt P51556).
T1 construct: expressed in transfected cells; host or cells: HEK293T (SILAC HEK293T for LC-MS)
T1 sequence (P51556 whole entry): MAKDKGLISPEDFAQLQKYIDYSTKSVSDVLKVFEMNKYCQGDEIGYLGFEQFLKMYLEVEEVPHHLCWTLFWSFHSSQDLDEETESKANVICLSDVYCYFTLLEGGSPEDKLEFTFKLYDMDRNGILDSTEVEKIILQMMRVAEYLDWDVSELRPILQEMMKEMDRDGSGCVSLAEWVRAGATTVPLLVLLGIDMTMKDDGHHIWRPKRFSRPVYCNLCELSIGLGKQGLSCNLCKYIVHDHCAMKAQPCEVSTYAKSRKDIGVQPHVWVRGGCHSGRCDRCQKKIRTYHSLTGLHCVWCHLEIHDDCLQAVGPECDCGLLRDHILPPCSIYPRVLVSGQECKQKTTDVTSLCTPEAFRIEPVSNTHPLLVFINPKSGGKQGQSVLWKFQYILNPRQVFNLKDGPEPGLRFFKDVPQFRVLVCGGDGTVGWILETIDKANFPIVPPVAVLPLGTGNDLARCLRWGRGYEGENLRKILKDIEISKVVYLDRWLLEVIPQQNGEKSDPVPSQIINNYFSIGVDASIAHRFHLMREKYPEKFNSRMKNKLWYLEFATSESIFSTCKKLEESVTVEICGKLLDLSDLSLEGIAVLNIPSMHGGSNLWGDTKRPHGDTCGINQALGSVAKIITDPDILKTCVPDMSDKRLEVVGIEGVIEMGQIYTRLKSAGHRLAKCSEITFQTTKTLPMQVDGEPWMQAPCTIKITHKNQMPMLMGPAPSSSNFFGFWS
Briefly: Gel-based ATP acyl phosphate chemical proteomic assay. The conditions noted are these: for blockade of DGKα ATP probe labeling: compounds 100 μM (ATP 1 mM; RF001 at indicated concentrations), probe 10 μM. In kind it is binding. Here is the method: Cell pellets were resuspended in kinase buffer (Dulbecco's PBS (DPBS, Hyclone), 20 mM MgCl2, EDTA-free protease inhibitors (Pierce)) and then lysed by sonication (3×1 sec pulse, 20% amplitude). The cell lysates were then subjected to centrifugation (100,000×g, 45 min at 4° C.) to isolate the cytosolic fraction in the supernatant and the membrane fraction as a pellet. The membrane pellet was resuspended in kinase buffer by sonication. […] The only exception was experiments involving DGKE; recombinant DGKE protein was most prominently expressed in the membrane fraction and so this fraction was utilized to study DGKE enzyme (see FIG. 8). Protein concentrations were measured using the Bio-Rad DC protein assay. Samples were stored at −80° C. until use.
Proteome concentration was adjusted to 2 mg/mL in kinase buffer. Proteomes were first pre-treated with compound (0.6 μL, 50× stock in DMSO) mixed with gentle flicking, and incubated for 30 min at 25° C. in a microfuge tube (30 μL reaction volume). […] Reactions were then quenched with 10 AL of 4×SDS-PAGE loading buffer. Protein samples (15 μL) were loaded onto 4-20% TGX Stain-Free Protein Midi Gel and resolved by SDS-PAGE at 150V for 55 min. Proteins were then transferred to a nitrocellulose blot by Bio-Rad Trans-Blot Turbo Transfer System (25V. 10 min) to enhance sensitivity. The nitrocellulose blot was then incubated in blocking solution (30 mL, 3% BSA in TBS-T) for 1 h at 25° C. with gentle shaking. The blot was then transferred immediately to antibody solution (30 mL, 5% BSA in ddH2O with 0.1% Tween20 and 1:3000 Streptavidin DyLight 550) and incubated for 2 h at 25° C. with gentle shaking. The blot was then rinsed 5 times for 5 min in TBS-T. and then transferred into ddH2O. The blot was then imaged by in-blot fluorescence scanning on a ChemiDoc MP Imaging System. Fluorescence intensity signals were normalized to total lane protein using the Bio-rad Stain Free imaging (Posch et al., 2013).
The percentage of enzyme activity remaining was determined by comparing integrated band intensities or luminescence of inhibitor—with DMSO-treated samples for gel-based chemical proteomic or ADP-glo assays, respectively. For both chemical proteomic and ADP-glo methods, nonlinear regression analysis was used to determine the IC50 values from a dose-response curve generated using GraphPad Prism. Data are shown as mean±s.e.m. Determination of significance was performed by one-way ANOVA. All statistical analyses were performed using GraphPad Prism.

Chain of Alpha (DGK alpha; only in reference sheet cells) (P51556 whole entry, canonical isoform): as the sequence (P51556 whole entry) above

Consider `O=C(c1ccc(F)cc1)C1CCN(CCn2c(=O)[nH]c3ccccc3c2=O)CC1` [Ketanserin], for which, in test [1], the activity at 100 µM was 99%. Moreover, the “blockade of DGKα ATP probe labeling” value at recombinant DGKα (30 min) is reported as “not ketanserin”.

A word on the inhibition: it is how much of the control response was suppressed. For the compound `Fc1ccc(C(=C2CCNCC2)c2ccc(F)cc2)cc1` [RF001, 4-(Bis(4-fluorophenyl)methylene) piperidine], the activity at 100 µM in test [1] was determined as 75%. The activity at 1000 µM in test [1] (read-out: 1 mM % Activity (section without isoform head; Alpha)) worked out at 0%. The inhibition at 1000 µM at recombinant DGKα (1 mM, read-out: inhibition of DGKα activity in the probe-binding assay) was > 80%. In addition, on recombinant DGKα (30 min), the “blockade of DGKα ATP probe labeling” value was “blocked probe labeling in a concentration-dependent manner”.

What is called IC50 is the point on the concentration scale where inhibition reaches its midpoint. Turning to `Cc1nc2sccn2c(=O)c1CCN1CCC(=C(c2ccc(F)cc2)c2ccc(F)cc2)CC1` [Ritanserin], the activity at 100 µM in test [1] came to 52%. The half-inhibitory concentration (IC50) at recombinant DGKα (IC50, blockade of ATP probe labeling of DGKα (gel-based), 10 μM ATP probe, 30 min) is 57 µM; at recombinant DGKα (read-out: 95% confidence intervals for IC50 values, gel-based assay), 17 to 192 µM. In addition, the “blockade of DGKα ATP probe labeling” value at recombinant DGKα (30 min) is recorded as “blocked probe labeling”.
